In brackets after ≈: the same amount, converted by molar mass.
Columns and labels:
[1] = In vitro cytotoxicity MTT assay on P388 cell line; type: cell-based; details: mouse, mean ± SD (n = 3)
Protocol: The in vitro study of the cytotoxicity potency of the isolated compounds was performed using the P388 (mouse leukaemia) cell line which was obtained from the American Type Culture Collection (ATCC) (Rockville, MD, USA). The cells were arranged in 96-well plates at a density of 10^4 cells per well containing […] of culture medium and then cultured for 24 h in the opti-MEM medium supplemented with 2 mM glutamine (Gibco, Grand Island, NY, USA), streptomycin (50 μg/mL), penicillin (50 U/mL), and 5% fetal calf serum (Gibco). After the cell cultures were maintained at 37°C in an atmosphere saturated with 5% CO2, the four tested compounds prepared at the concentration of 1 mg/mL by dissolving in the mixture DMSO/culture medium (1 : 9) were diluted in cell culture to reach the required concentrations (ranging from 1 to 100 μg/mL). The in vitro cytotoxic activity of the tested compounds was evaluated using the MTT assay for leukaemia cells.

Plasmodium parasite = tested on: Plasmodium parasite; set-up: method as in doi:10.1016/j.sajb.2022.11.021; details: in words; cited from earlier work

Row | SMILES | IC50 ([1]; P388 cells) | Antiplasmodial potency (Plasmodium parasite) | IC50 ([1]; P388 leukaemia cells)
1 | O=c1c2ccc(O)cc2oc2cccc(O)c12 [Compound 1, 1,6-dihydroxyxanthone] | 17.6 ± 0.7 µg/mL (≈ 77.1 µM) | – | –
2 | C[C@H]1[C@H](C)CC[C@]2(C(=O)O)CC[C@]3(C)C(=CC[C@@H]4[C@@]5(C)CC[C@H](O)C(C)(C)[C@@H]5CC[C@]43C)[C@H]12 [Compound 4, ursolic acid] | – | weak | 2.5 ± 0.6 µg/mL (≈ 5.47 µM)
3 | C=C(C)[C@@H]1CC[C@]2(C(=O)O)CC[C@]3(C)[C@H](CC[C@@H]4[C@@]5(C)CC[C@H](O)C(C)(C)[C@@H]5CC[C@]43C)[C@@H]12 [Compound 3, betulinic acid] | 6.8 ± 2.2 µg/mL (≈ 14.9 µM) | – | –
4 | O=c1c2cc(O)c(O)cc2oc2cc(O)cc(O)c12 [Compound 2, norathyriol] | – | – | 21.8 ± 0.3 µg/mL (≈ 83.8 µM)
